Results from publication PMC10515640, “Structure-Based Optimization of Covalent, Small-Molecule Stabilizers of the 14-3-3σ/ERα Protein–Protein Interaction from Nonselective Fragments” (Journal of the American Chemical Society, 2023).

What was measured:
[1] = target: T1, 14-3-3σ/C-RAF (Homo sapiens, UniProt P31947); experiment: Mass spectrometry dose response, compound binding to 14-3-3σ in the presence of C-RAF phosphopeptide; settings: 100 nM compound, 100 nM 14-3-3σ, C-RAF peptide 18 µM
T1 construct: The 14-3-3 σ isoform (full-length for mass spectrometry and fluorescence anisotropy assays, ΔC for crystallography); made in house; host or cells: E. coli Rosetta 2(DE3)pLysS, pPROEX HTb vector
T1 sequence (P31947 1-248): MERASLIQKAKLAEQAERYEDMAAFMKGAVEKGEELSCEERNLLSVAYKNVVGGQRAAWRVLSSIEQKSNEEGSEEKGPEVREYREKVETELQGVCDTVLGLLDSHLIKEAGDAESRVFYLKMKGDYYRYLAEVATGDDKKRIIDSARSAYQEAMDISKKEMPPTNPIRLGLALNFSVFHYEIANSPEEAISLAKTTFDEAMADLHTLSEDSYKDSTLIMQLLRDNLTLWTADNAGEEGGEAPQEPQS
In short: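 Covalent binding of compounds to the native Cys38 of 14-3-3σ was monitored by LC-MS on a Waters Acquity UPLC/Xevo G2-XS Q-Tof, with samples desalted on a BEH-C4 column. Full-length wild type 14-3-3σ (100 nM) with C-RAF peptide in TRIS buffer (10 mM, pH 8.0) was incubated with compound dose series at room temperature.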

[2] = target: T2, 14-3-3σ/ERα (Homo sapiens, UniProt P03372+P31947); experiment: Fluorescence anisotropy protein titration, FAM-labeled ERα peptide; assay type: binding; settings: 10 nM FAM-ERα peptide; for X Fold stabilization (100 µM compound) of 14-3-3σ/ERα: versus DMSO reference; for Kd: 100 µM compound, overnight incubation
T2 construct: The 14-3-3 σ isoform (full-length for mass spectrometry and fluorescence anisotropy assays, ΔC for crystallography); made in house; host or cells: E. coli Rosetta 2(DE3)pLysS, pPROEX HTb vector
Experimental: To evaluate compound-mediated stabilization of the 14-3-3σ/ERα complex directly, FA protein titrations were performed at a saturating concentration of compound. FA protein titrations allowed the quantification of the cooperative effect by comparing the apparent dissociation constants (appKD) of the binary and ternary complexes. 14-3-3σ was titrated into 10 nM FAM-labeled ERα peptide in the presence of DMSO or 100 μM of the compounds (Table S4). […]
diluted in buffer (10 mM HEPES, pH 7.5, 150 mM NaCl, 0.1% Tween20, 1 mg/mL Bovine Serum Albumin (BSA; Sigma-Aldrich). Final DMSO in the assay was always 1%. […]
Protein titrations were made by titrating 14-3-3σ in a 2-fold dilution series (starting at 300 µM) to a mix of fluorescein-labeled peptide (10 nM) and DMSO or compound (100 µM). Fluorescence anisotropy measurements were performed after overnight incubation at room temperature. […]
Wells containing only FAM-peptide were used to set as G-factor at 35 mP. Data reported are at endpoint. EC50 and apparent Kd values were obtained from fitting the data with a four-parameter logistic model (4PL) in GraphPad Prism 7 for Windows. Data was obtained and averaged based on either three (compound titrations) or two (protein titrations) independent experiments.

[3] = target: T2, 14-3-3σ/ERα; experiment: Mass spectrometry dose response, compound binding to 14-3-3σ in the presence of ERα phosphopeptide; settings: 100 nM compound, 100 nM 14-3-3σ, ERα-peptide 2 µM
In short: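 Covalent labeling of Cys38 on 14-3-3σ was tracked by LC-MS on a Waters Acquity UPLC/Xevo G2-XS Q-Tof, with samples desalted on a Protein BEH-C4 column. Full-length wild type 14-3-3σ (100 nM) plus ERα phosphopeptide was mixed with compound in 10 mM TRIS, pH 8.0, at 50 μl per well. Percent bound was measured at several time points.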

[4] = target: T2, 14-3-3σ/ERα; experiment: Fluorescence anisotropy compound titration, FAM-labeled ERα peptide; assay type: binding; settings: 10 nM ERα-FAM labeled peptide, 1 µM 14-3-3σ, overnight incubation (24 h); read-out: EC50 value ERα (FA compound titration)
In short: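 Fluorescence anisotropy compound titration measuring stabilization of the 14-3-3σ/ERα interaction: compounds were titrated in a 2-fold dilution series (starting at 500 or 1000 µM) into a mix of 10 nM fluorescein-labeled ERα peptide and 1 µM 14-3-3σ (about EC25 of the complex) in HEPES buffer with 1% DMSO, read after overnight incubation at room temperature; EC50 from 4PL fitting.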

[5] = target: T3, 14-3-3σ (Homo sapiens, UniProt P31947); experiment: Mass spectrometry dose response, compound binding to 14-3-3σ in the absence of peptide (apo); settings: 100 nM compound, 100 nM 14-3-3σ
T3 construct: The 14-3-3 σ isoform (full-length for mass spectrometry and fluorescence anisotropy assays, ΔC for crystallography); made in house; host or cells: E. coli Rosetta 2(DE3)pLysS, pPROEX HTb vector
T3 sequence (P31947 1-248): T1 sequence (P31947 1-248)
In short: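 Covalent binding of compounds to Cys38 of full-length wild type human 14-3-3σ (100 nM) was measured by LC-MS without peptide present. Compounds from 50 mM DMSO stocks were serially diluted 3-fold and 1000 nl transferred to plates in TRIS buffer (10 mM, pH 8.0), 50 μl per well. Samples were desalted on a BEH-C4 column and analysed on a Xevo G2-XS Q-Tof at several time points.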

[6] = target: T1, 14-3-3σ/C-RAF; experiment: Fluorescence anisotropy compound titration, FAM-labeled C-RAF peptide; assay type: binding; settings: 10 nM C-RAF-FAM labeled peptide, 5 µM 14-3-3σ, overnight incubation; read-out: EC50 value C-RAF (FA compound titration)
In short: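 A fluorescence anisotropy compound titration measured how compounds stabilize binding of 14-3-3σ to a fluorescein-labeled C-RAF peptide. Compounds were diluted 2-fold, from 500 or 1000 µM, into 10 nM labeled peptide with 5 µM 14-3-3σ, roughly its EC25, in HEPES buffer with 1% DMSO. Plates were read after overnight incubation at room temperature. EC50 values came from 4PL fits over three independent experiments.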

Row | SMILES | Percentage (%) bound of compound to 14-3-3σ, CRAF 1h [1] [%] | Percentage (%) bound of compound to 14-3-3σ, CRAF 8h [1] [%] | Percentage (%) bound of compound to 14-3-3σ, CRAF 24h ([1]; 24h) [%] | Percentage (%) bound of compound to 14-3-3σ, CRAF 24h ([1]; head prints 24h) [%] | X Fold stabilization (100 µM compound) of 14-3-3σ/ERα [2] [fold] | Kd [2] [µM] | Percentage (%) bound of compound to 14-3-3σ, ERα 1h [3] [%] | Percentage (%) bound of compound to 14-3-3σ, ERα 8h [3] [%] | Percentage (%) bound of compound to 14-3-3σ, ERα 16h [3] [%] | Percentage (%) bound of compound to 14-3-3σ, ERα 24h [3] [%] | EC50 [4] [µM] | Percentage (%) bound of compound to 14-3-3σ, APO 1h [5] [%] | Percentage (%) bound of compound to 14-3-3σ, APO 8h [5] [%] | Percentage (%) bound of compound to 14-3-3σ, APO 16h [5] [%] | Percentage (%) bound of compound to 14-3-3σ, APO 24h [5] [%] | EC50 [6] [µM]
1 | O=C(CCl)NCCCC1CCN(C(=O)C2(Nc3ccc(Cl)cc3)CCOCC2)CC1 [compound 149] | 0 | 1.0 | 23.3 | 3.4 | 55 | 0.027 | 7.6 | 16.2 | 37.7 | 86.7 | 4 ± 0.4 | 0.6 | 0.8 | 14.2 | 17.7 | –
2 | O=C(CCl)N1CCC2(CC1)CC(NC(=O)C1(Nc3ccc(Cl)cc3)CCOCC1)C2 [compound 163] | 6.0 | 13.4 | 49.6 | 27.1 | 18 | 0.077 | 42.3 | 80.4 | 96.6 | 99.8 | 4 ± 1 | 5.6 | 11.2 | 22.6 | 40.5 | 57 ± 5
3 | O=C(CCl)NC1CC2(CCN(C(=O)C3(Nc4ccc(Cl)cc4)CCOCC3)CC2)C1 [compound 166] | 1.8 | 4.0 | 23.3 | 11.8 | 13 | 0.16 | 32.6 | 60.3 | 87.6 | 94.0 | 6 ± 0.3 | 1.2 | 3.2 | 5.5 | 13.3 | 77 ± 5
4 | O=C(CCl)N1CCC2(CC1)CCN(C(=O)C1(Nc3ccc(Cl)cc3)CCOCC1)CC2 [compound 170] | 3.6 | 8.0 | 19.7 | 12.1 | 12 | 0.119 | 38.2 | 68.1 | 86.2 | 94.0 | 8 ± 1 | 1.0 | 1.8 | 3.4 | 5.3 | 58 ± 11
5 | CC1CC(Nc2ccc(Cl)cc2)(C(=O)NCC2CC3(CCN(C(=O)CCl)CC3)C2)CC(C)O1 (stereo not drawn) [compound 180] | 0 | 2.5 | 8.5 | 4.5 | 7 | 0.192 | 40.8 | 50.1 | 84.4 | 96.1 | 10 ± 2 | 1.4 | 2.9 | 7.3 | 11.5 | > 150

Next, values leading:

Row | Percentage (%) bound of compound to 14-3-3σ, CRAF 1h [1] [%] | Percentage (%) bound of compound to 14-3-3σ, CRAF 8h [1] [%] | Percentage (%) bound of compound to 14-3-3σ, CRAF 24h ([1]; 24h) [%] | Percentage (%) bound of compound to 14-3-3σ, CRAF 24h ([1]; head prints 24h) [%] | X Fold stabilization (100 µM compound) of 14-3-3σ/ERα [2] [fold] | Kd [2] [µM] | Percentage (%) bound of compound to 14-3-3σ, ERα 1h [3] [%] | Percentage (%) bound of compound to 14-3-3σ, ERα 8h [3] [%] | Percentage (%) bound of compound to 14-3-3σ, ERα 16h [3] [%] | Percentage (%) bound of compound to 14-3-3σ, ERα 24h [3] [%] | EC50 [4] [µM] | Percentage (%) bound of compound to 14-3-3σ, APO 1h [5] [%] | Percentage (%) bound of compound to 14-3-3σ, APO 8h [5] [%] | Percentage (%) bound of compound to 14-3-3σ, APO 16h [5] [%] | Percentage (%) bound of compound to 14-3-3σ, APO 24h [5] [%] | EC50 [6] [µM] | SMILES
6 | 1.1 | 2.9 | 10.5 | 7.4 | 19 | 0.077 | 9.5 | 19.6 | 56.8 | 85.2 | 2 ± 0.3 | 0 | 0 | 1.0 | 2.0 | > 150 | O=C(CCl)NCC1CCN(C(=O)C2(Nc3ccc(Cl)cc3)CCOCC2)CC1 [compound 127]
7 | 0 | 0.5 | 5.7 | 2.0 | 15 | 0.094 | 24.6 | 36.8 | 77.5 | 96.4 | 12 ± 1 | 0.9 | 1.7 | 2.4 | 2.5 | 86 ± 11 | CC1CC(Nc2ccc(Cl)cc2)(C(=O)N2CCC(CNC(=O)CCl)CC2)CC(C)O1 (stereo not drawn) [compound 178]
